The record followed here is PubChem BioAssay (NCI).

Some test systems named below: COLO 205 colon; DU-145 prostate; EKVX NSCLC; M14 melanoma; MOLT-4 leukemia; NCI-H226 lung; NCI-H23 lung; NCI/ADR-RES ovarian; SNB-19 CNS; UACC-62 melanoma.
Test in all cases: growth of human tumour cells (NCI), 48 h

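Growth conditions: 96-well plates. Treatment: test compound, 48 hours, 5 concentrations. Analysis: linear interpolation between bracketing concentrations; unreached endpoints set to highest concentration. GI50 is the concentration that inhibits growth by half. TGI: concentration producing complete growth inhibition.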 A value given as a limit tells only on which side of the number the result lay.

Take `CNc1cccnc1/C=N/NC(N)=S`: the TGI in the assay on COLO 205 colon was over 10 µM; in the assay with DU-145 prostate, 3.89 µM; with EKVX NSCLC, over 10 µM; in the assay with M14 melanoma it was 3.94 µM; in the assay on MOLT-4 leukemia, over 10 µM; in the assay on NCI-H226 lung it was over 10 µM. Also, the TGI in the assay on NCI-H23 lung was over 6.65 µM; in the assay with NCI/ADR-RES ovarian, 9.94 µM; in the assay on SNB-19 CNS it was over 10 µM; in the assay on UACC-62 melanoma, 3.07 µM.

With `COc1ccc(Cn2cnc3cc(C(=O)Nc4cccc5ccccc45)ccc32)c(OC)c1`, the GI50 is 0.0462 µM in the assay with COLO 205 colon; 0.0439 µM in the assay on DU-145 prostate; 0.0654 µM in the assay on EKVX NSCLC; 0.0275 µM in the assay on M14 melanoma; 0.0621 µM in the assay on MOLT-4 leukemia; 0.111 µM with NCI-H226 lung. For the same molecule, the GI50 with NCI-H23 lung was 0.0898 µM; with NCI/ADR-RES ovarian it was 0.042 µM; in the assay with SNB-19 CNS, 0.0465 µM; with UACC-62 melanoma it was 0.0531 µM. The TGI was 0.724 µM in the assay on COLO 205 colon; 3.36 µM in the assay on DU-145 prostate; over 100 µM in the assay with EKVX NSCLC; over 100 µM in the assay with MOLT-4 leukemia; over 100 µM in the assay with NCI-H226 lung; over 100 µM in the assay on NCI-H23 lung. For the same molecule, the results for the TGI in the assay on NCI/ADR-RES ovarian, in the assay on SNB-19 CNS and with UACC-62 melanoma were over 100 µM, over 100 µM and over 66.7 µM, respectively.

As for `COc1cc2c3c(n(CCCCNC(=O)OCC4c5ccccc5-c5ccccc54)c(=O)c2cc1OC)-c1cc2c(cc1C3=O)OCO2`, the GI50 in the assay with COLO 205 colon is 49.9 µM; in the assay on DU-145 prostate it was 8.04 µM; with EKVX NSCLC, 87.2 µM; in the assay on M14 melanoma, 25.9 µM; with MOLT-4 leukemia, 0.281 µM; in the assay on NCI-H226 lung, 31.1 µM. In addition, the GI50 in the assay on NCI-H23 lung is 26.4 µM; with NCI/ADR-RES ovarian, 58.1 µM; in the assay on SNB-19 CNS, 81.6 µM; with UACC-62 melanoma, 45.7 µM. Besides, the TGI with COLO 205 colon was over 100 µM; with DU-145 prostate, over 100 µM; in the assay on EKVX NSCLC it was over 100 µM; in the assay on M14 melanoma, over 100 µM; in the assay on MOLT-4 leukemia, 1.81 µM; in the assay with NCI-H226 lung it was over 100 µM. In addition, the TGI with NCI-H23 lung, in the assay with NCI/ADR-RES ovarian, with SNB-19 CNS and in the assay on UACC-62 melanoma was over 100 µM in each case.

For `CN(C)c1ccc(/C=C/c2ccnc3ccccc23)cc1N`, the TGI with COLO 205 colon stood at 19.6 µM; in the assay with DU-145 prostate it was 30.2 µM; in the assay on EKVX NSCLC it was 22.4 µM; in the assay with M14 melanoma it was 25.1 µM; with MOLT-4 leukemia it was 25.5 µM; with NCI-H226 lung, 36.5 µM. Besides, the TGI in the assay with NCI-H23 lung is 21.8 µM; in the assay with NCI/ADR-RES ovarian, 53.9 µM; in the assay on SNB-19 CNS, 28.5 µM; in the assay on UACC-62 melanoma, 25.9 µM.

Take `CC(=O)c1c(O)ccc2c(C)c(C(=O)O)oc12`: the GI50 in the assay on COLO 205 colon was over 100 µM; with DU-145 prostate, over 100 µM; in the assay with EKVX NSCLC it was over 100 µM; with M14 melanoma, over 100 µM; in the assay with MOLT-4 leukemia, over 100 µM; in the assay with NCI-H226 lung, 0.0188 µM. Also, the GI50 was over 100 µM with NCI-H23 lung, over 100 µM in the assay with NCI/ADR-RES ovarian, over 100 µM with SNB-19 CNS and 80.4 µM in the assay on UACC-62 melanoma. Further, the TGI in the assay with COLO 205 colon is over 100 µM; in the assay with DU-145 prostate it was over 100 µM; in the assay with EKVX NSCLC, over 100 µM; in the assay with M14 melanoma it was over 100 µM; in the assay on MOLT-4 leukemia it was over 100 µM; with NCI-H226 lung, 12.2 µM. Besides, the TGI in the assay with NCI-H23 lung, with NCI/ADR-RES ovarian, in the assay on SNB-19 CNS and in the assay with UACC-62 melanoma was over 100 µM in each case.

Turning to `O=c1[nH]ccc2nc(-c3ccc(CN4CCC(c5nc(-c6ccccn6)n[nH]5)CC4)cc3)c(-c3ccccc3)cc12`, the GI50 in the assay on COLO 205 colon was 1.54 µM; with DU-145 prostate, 22.3 µM; with EKVX NSCLC, 15.8 µM; in the assay with M14 melanoma, 22.2 µM; in the assay with MOLT-4 leukemia, 0.364 µM; in the assay with NCI-H226 lung it was 19 µM. The GI50 is 42.4 µM with NCI-H23 lung, 36.7 µM in the assay on NCI/ADR-RES ovarian, 17.1 µM in the assay with SNB-19 CNS and 16.3 µM with UACC-62 melanoma. The TGI in the assay on COLO 205 colon was over 100 µM; in the assay on DU-145 prostate it was over 100 µM; with EKVX NSCLC, over 100 µM; in the assay with M14 melanoma, over 100 µM; in the assay with MOLT-4 leukemia, 4.67 µM; in the assay with NCI-H226 lung, over 100 µM. Besides, the TGI in the assay with NCI-H23 lung is over 100 µM; in the assay with NCI/ADR-RES ovarian it was over 100 µM; in the assay on SNB-19 CNS, over 100 µM; with UACC-62 melanoma it was over 86.6 µM.

For the molecule `N#CCC12CC=CCC1=C(O)C(=O)c1ccc(O)cc12` (stereo not drawn), the TGI in the assay on COLO 205 colon, with DU-145 prostate, with EKVX NSCLC, in the assay on M14 melanoma, in the assay on MOLT-4 leukemia and in the assay with NCI-H226 lung was over 100 µM throughout. Further, the TGI with NCI-H23 lung, in the assay with NCI/ADR-RES ovarian, with SNB-19 CNS and with UACC-62 melanoma was over 100 µM in each case.

In the case of `O=C(N/N=c1/ccoc2cccnc12)N1CCN(c2ncccn2)CC1`, the GI50 in the assay with COLO 205 colon was under 0.01 µM; in the assay on DU-145 prostate, 0.796 µM; in the assay with EKVX NSCLC it was 0.16 µM; in the assay on M14 melanoma, 0.0831 µM; with MOLT-4 leukemia, under 0.0129 µM; in the assay with NCI-H23 lung, 0.0308 µM. Also, the GI50 was under 0.0193 µM in the assay with NCI/ADR-RES ovarian, 0.804 µM in the assay with SNB-19 CNS and 0.457 µM in the assay on UACC-62 melanoma. Besides, the TGI in the assay with COLO 205 colon amounted to 7.57 µM; with DU-145 prostate it was 13.1 µM; in the assay with EKVX NSCLC it was 10.6 µM; in the assay on M14 melanoma, 2.59 µM; in the assay with MOLT-4 leukemia it was 8.06 µM; in the assay on NCI-H226 lung it was 2.56 µM. Besides, the TGI in the assay on NCI-H23 lung is 16.7 µM; in the assay with NCI/ADR-RES ovarian, 12.3 µM; in the assay with SNB-19 CNS, 16.8 µM; in the assay with UACC-62 melanoma, 5.12 µM.
